Data set [1] relates to tubulin (colchicine site). As to the kind of experiment: Inhibition of [3H]colchicine binding to tubulin. Further details: species or system bovine. The conditions noted are these: tubulin 1 µM, [3H]colchicine 5 µM, compound 5 µM. Here is the method: To evaluate the effect of the compounds on tubulin assembly in vitro[40], varying concentrations of compounds were preincubated with 10 μM bovine brain tubulin in 0.8M monosodium glutamate (pH adjusted to 6.6 with HCl in a 2.0M stock solution) at 30 °C and then cooled to 0 °C. After addition of 0.4 mM GTP, the mixtures were transferred to 0 °C cuvettes in a recording spectrophotometer and warmed to 30 °C. Tubulin assembly was followed turbidimetrically at 350 nm. […] The capacity of the test compounds to inhibit colchicine binding to tubulin was measured as described. The reaction mixtures contained 1 μM tubulin, 5 μM [^3H]colchicine and 5 μM test compound.

For data set [2], the system named is human peripheral blood mononuclear cells (PBMC). As to the kind of experiment: Cytotoxicity on normal PBMC (quiescent or PHA-activated). It is filed as cell-based. The following applies: up to 10 μM, 24 h. As to the method: U-937 (human myeloid leukaemia) cells from DSMZ (German Collection of Microorganisms and Cell Cultures, Braunschweig, Germany) and U-937 cells overexpressing human Bcl-2 protein (designated U-937/Bcl-2, donated by Dr Jacqueline Bréard, INSERM U749, Faculté de Pharmacie Paris-Sud., Châtenay-Malabry, France) were cultured in RPMI-1640 medium containing 10% (v/v) heat-inactivated foetal bovine serum, 100 μg/mL streptomycin and 100 U/mL penicillin, incubated at 37 °C in a humidified atmosphere containing 5% CO2 as described. The functioning of U-937/Bcl-2 cells was tested using the cytotoxic agent 1-β-D-arabino-furanosylcytosine as previously described. Human peripheral blood mononuclear cells (PBMC) were isolated from heparin-anticoagulated blood of healthy volunteers by centrifugation with Ficoll-Paque Plus (GE Healthcare Bio-Sciences AB, Uppsala, Sweden). PBMC were also stimulated with phytohemagglutinin (2 μg/mL) for 48 h before the experimental treatment. The trypan blue dye exclusion method was used for counting the living/dead cells by a hematocytometer with 95% viability in all experiments. The cytotoxicity of compounds was evaluated by the colorimetric 3-(4,5-dimethyl-2-thiazolyl-)-2,5-diphenyl-2H-tetrazolium bromide (MTT) assay as previously described. […] After the addition of MTT (0.5 mg/mL), cells were incubated at 37 °C for 4 h. Sodium dodecyl sulphate (10% w/v) in 0.05 M HCl was added to the wells and then incubated at room temperature overnight in the dark. Absorbance was measured at 570 nm. […] Values are mean ± SE from at least three independent experiments, each performed in triplicate. Compounds were dissolved in DMSO and kept in the dark at 25 °C.

Data set [3] relates to U-937 cells overexpressing human Bcl-2 (U-937/Bcl-2). As to the kind of experiment: MTT cytotoxicity assay, U-937/Bcl-2. The format is cell-based. The following applies: U-937/Bcl-2, MTT, read-out: IC50, inhibition of cell growth. As to the method: U-937 (human myeloid leukaemia) cells from DSMZ (German Collection of Microorganisms and Cell Cultures, Braunschweig, Germany) and U-937 cells overexpressing human Bcl-2 protein (designated U-937/Bcl-2, donated by Dr Jacqueline Bréard, INSERM U749, Faculté de Pharmacie Paris-Sud., Châtenay-Malabry, France) were cultured in RPMI-1640 medium containing 10% (v/v) heat-inactivated foetal bovine serum, 100 μg/mL streptomycin and 100 U/mL penicillin, incubated at 37 °C in a humidified atmosphere containing 5% CO2 as described. The functioning of U-937/Bcl-2 cells was tested using the cytotoxic agent 1-β-D-arabino-furanosylcytosine as previously described. Human peripheral blood mononuclear cells (PBMC) were isolated from heparin-anticoagulated blood of healthy volunteers by centrifugation with Ficoll-Paque Plus (GE Healthcare Bio-Sciences AB, Uppsala, Sweden). PBMC were also stimulated with phytohemagglutinin (2 μg/mL) for 48 h before the experimental treatment. The trypan blue dye exclusion method was used for counting the living/dead cells by a hematocytometer with 95% viability in all experiments. The cytotoxicity of compounds was evaluated by the colorimetric 3-(4,5-dimethyl-2-thiazolyl-)-2,5-diphenyl-2H-tetrazolium bromide (MTT) assay as previously described. Briefly, 5 × 10^3 exponentially growing cells were seeded in 96-well microculture plates with increasing concentrations of compounds for 72 h. After the addition of MTT (0.5 mg/mL), cells were incubated at 37 °C for 4 h. Sodium dodecyl sulphate (10% w/v) in 0.05 M HCl was added to the wells and then incubated at room temperature overnight in the dark. Absorbance was measured at 570 nm. […] Values are mean ± SE from at least three independent experiments, each performed in triplicate. Compounds were dissolved in DMSO and kept in the dark at 25 °C.

The test system of data set [4] is human cervix carcinoma (HeLa) cells. As to the kind of experiment: Antiproliferative assay, cell counting (Coulter Counter), HeLa. It is filed as cell-based. The following applies: 72–96 h, read-out: IC50, inhibition of proliferation. As to the method:
(§1) Human cervix carcinoma (HeLa), human colon carcinoma (HT29), human breast carcinoma (MCF-7) and human lymphoma (HL-60) cells (3–5 × 10^4 cells) and a serial (five-fold) dilution of the test compounds were added to a 96-well microtiter plate. The cells were incubated for 72–96 h (depending on the tumor cell line) at 37 °C in a humidified 5% CO2 atmosphere. At the end of the incubation period, the cells were counted in a Coulter Counter (Coulter Electronics Ltd, Harpenden Herts, UK). […] The IC50 values represent the average (±standard deviation) of at least two to four independent experiments.

Data set [5] deals with human breast adenocarcinoma (MCF-7) cells. As to the kind of experiment: Antiproliferative assay, cell counting (Coulter Counter), MCF-7. The format is cell-based. The conditions noted are these: for fold more potent than CA-4: MCF-7 cells, ratio of IC50 values. Here is the method: as §1

The structures appear in SMILES notation. “Also recorded” adds a separate entry of the source. Like-named read-outs stand apart in the source and are kept apart here.

`CCOC(=O)c1[nH]c2ccc(OC)cc2c1/C=C/C(=O)c1cc(OC)c(OC)c(OC)c1` [Compound 9d, (E)-Ethyl 5-methoxy-3-(3-oxo-3-(3,4,5-trimethoxyphenyl)prop-1-en-1-yl)-1H-indole-2-carboxylate]: the “Colchicine binding % ±SD (inhibition)” value in data set [1] stood at 9.6 ± 2%. In data set [2], the “Toxicity to normal PBMC” value is reported as “devoid of significant cytotoxic activity; also recorded: no appreciable toxicity”. Moreover, the IC50 in data set [3] (Homo sapiens, U-937, 72 h) came out at 700 ± 200 nM.
With `COC(=O)c1[nH]c2cc(OC)ccc2c1/C=C/C(=O)c1cc(OC)c(OC)c(OC)c1` [Compound 9e, (E)-Methyl 6-methoxy-3-(3-oxo-3-(3,4,5-trimethoxyphenyl)prop-1-en-1-yl)-1H-indole-2-carboxylate], the IC50 is 370 ± 180 nM in data set [4] (Homo sapiens); 170 ± 30 nM in data set [5] (Homo sapiens, MCF7, MCF-7, 72–96 h, read-out: IC50, inhibition of proliferation); about 1000 nM in data set [3] (Homo sapiens, U-937, 72 h); 1100 ± 1000 nM in data set [3] (72 h). In data set [1], the “Colchicine binding % ±SD (inhibition)” value worked out at 29 ± 5%. The “Toxicity to normal PBMC” value in data set [2] is “devoid of significant cytotoxic activity; also recorded: no appreciable toxicity”. Also, the “fold more potent than CA-4” value in data set [5] is 1.5–2 fold.
For the molecule `CCOC(=O)c1[nH]c2cc(OC)ccc2c1/C=C/C(=O)c1cc(OC)c(OC)c(OC)c1` [Compound 9f, (E)-Ethyl 6-methoxy-3-(3-oxo-3-(3,4,5-trimethoxyphenyl)prop-1-en-1-yl)-1H-indole-2-carboxylate], the IC50 in data set [4] is 840 ± 390 nM; in data set [4] (Homo sapiens), under 1000 nM; in data set [3] (Homo sapiens, U-937, 72 h) it was 1000 ± 800 nM. In addition, the “Colchicine binding % ±SD (inhibition)” value in data set [1] is on record as 23 ± 1%. For the same molecule, in data set [2], the “Toxicity to normal PBMC” value is listed as “devoid of significant cytotoxic activity; also recorded: no appreciable toxicity”. Besides, the “fold more potent than CA-4” value in data set [5] is 1.5–2 fold.

Source of the values: PMC6116705, “Design, synthesis, in vitro antiproliferative activity and apoptosis-inducing studies of 1-(3′,4′,5′-trimethoxyphenyl)-3-(2′-alkoxycarbonylindolyl)-2-propen-1-one derivatives obtained by a molecular hybridisation approach” (Journal of Enzyme Inhibition and Medicinal Chemistry, 2018).
